Patent US20240384268A1, “Oligonucleotides” (Hudson Institute of Medical Research, priority 2021, published 2024)
In the oligonucleotide strings, read from the 5' end, every base follows the letter of its sugar. An asterisk marks phosphorothioate; unmarked linkages are phosphodiester. Other units and linkages are bracketed, terminal groups are in braces. A string of capitals states the bases alone. d = 2'-deoxy (DNA); m = 2'-O-methyl

Molecular target: T1, human TLR7 (Homo sapiens, UniProt Q9NYK1)
T1 construct: HA; host or cells: 293XL-hTLR7-HA (HEK293)
T1 sequence (Q9NYK1 27-1049): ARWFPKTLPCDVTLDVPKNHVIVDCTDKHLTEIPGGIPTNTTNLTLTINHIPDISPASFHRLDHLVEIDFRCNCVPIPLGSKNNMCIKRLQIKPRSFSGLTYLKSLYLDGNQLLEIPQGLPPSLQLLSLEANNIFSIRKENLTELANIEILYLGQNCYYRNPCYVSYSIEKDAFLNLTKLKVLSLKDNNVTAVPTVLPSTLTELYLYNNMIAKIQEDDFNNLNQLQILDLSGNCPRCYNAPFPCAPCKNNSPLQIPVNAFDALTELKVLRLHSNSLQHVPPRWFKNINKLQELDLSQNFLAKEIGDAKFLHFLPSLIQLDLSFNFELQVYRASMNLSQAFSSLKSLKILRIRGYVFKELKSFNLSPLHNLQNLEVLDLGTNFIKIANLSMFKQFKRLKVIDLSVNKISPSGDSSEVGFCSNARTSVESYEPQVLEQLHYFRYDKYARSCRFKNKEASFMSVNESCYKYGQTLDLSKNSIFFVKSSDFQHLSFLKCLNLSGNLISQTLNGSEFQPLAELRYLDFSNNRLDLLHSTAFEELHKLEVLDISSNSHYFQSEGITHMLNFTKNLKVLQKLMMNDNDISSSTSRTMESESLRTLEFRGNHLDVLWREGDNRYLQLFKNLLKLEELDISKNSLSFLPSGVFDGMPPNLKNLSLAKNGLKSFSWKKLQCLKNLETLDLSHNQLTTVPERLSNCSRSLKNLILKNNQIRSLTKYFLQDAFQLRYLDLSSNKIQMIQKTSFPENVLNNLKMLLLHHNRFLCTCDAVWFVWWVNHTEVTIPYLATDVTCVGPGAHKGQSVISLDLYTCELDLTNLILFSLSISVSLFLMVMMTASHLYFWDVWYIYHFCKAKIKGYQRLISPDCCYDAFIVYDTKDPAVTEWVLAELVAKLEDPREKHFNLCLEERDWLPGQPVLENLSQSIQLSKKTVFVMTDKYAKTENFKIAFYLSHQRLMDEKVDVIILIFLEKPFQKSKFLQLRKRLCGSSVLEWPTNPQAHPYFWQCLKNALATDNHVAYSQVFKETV
Test: HEK-TLR7 NF-κB-luciferase reporter, R848 stimulation
Assay type: cell-based
Conditions: for TLR7 100 nM (averaged NF-κB-Luciferase level relative to R848 condition): ASO 100 nM; for TLR7 100 nM (averaged NF-κB-Luciferase level relative to R848 condition) / TLR7 500 nM (averaged NF-κB-Luciferase level relative to R848 condition): relative to R848 only, given as fraction; for TLR7 500 nM (averaged NF-κB-Luciferase level relative to R848 condition): ASO 500 nM; for TLR7-100 nM: averaged NF-κB-Luciferase relative to R848: 100 nM ASO, percentage of R848 without ASO (Alharbi et al., 2020)

Substance | TLR7-100 nM: averaged NF-κB-Luciferase relative to R848 (HEK-TLR7) | also measured
TGTCCTTGCACGTGGC (antisense; LNA-modified, pattern not given here) [EGFR-1016 LNA V1] |  | TLR7 100 nM (averaged NF-κB-Luciferase level relative to R848 condition): 0.502; TLR7 500 nM (averaged NF-κB-Luciferase level relative to R848 condition): 0.199
TGTCTGGAAGCTTCCT (antisense; LNA-modified, pattern not given here) [CTNN2B-808 LNA V1] |  | TLR7 100 nM (averaged NF-κB-Luciferase level relative to R848 condition): 0.495; TLR7 500 nM (averaged NF-κB-Luciferase level relative to R848 condition): 0.278
TTCAGGCGCTGCCTTG (antisense; LNA-modified, pattern not given here) [CAMSAP1-2709 LNA V1] |  | TLR7 100 nM (averaged NF-κB-Luciferase level relative to R848 condition): 0.642; TLR7 500 nM (averaged NF-κB-Luciferase level relative to R848 condition): 0.181
mA*mA*mA*mG*mC*A*G*T*C*T*C*C*A*T*G*mU*mC*mC*mC*mA (mA*mA*mA*mG*mC*dA*dG*dT*dC*dT*dC*dC*dA*dT*dG*mU*mC*mC*mC*mA; antisense) [[CDKN2B-AS1]2237] | 27.16% | 
mA*mA*mG*mC*mA*G*T*C*T*C*C*A*T*G*T*mC*mC*mC*mA*mG (mA*mA*mG*mC*mA*dG*dT*dC*dT*dC*dC*dA*dT*dG*dT*mC*mC*mC*mA*mG; antisense) [[CDKN2B-AS1]2236] | 35.69% | 
mA*mG*mC*mA*mG*T*C*T*C*C*A*T*G*T*C*mC*mC*mA*mG*mG (AGCAGTCTCCATGTCCCAGG; antisense; sugars from the 5' end m5 d10 m5, all phosphorothioate, methylation of C not given here) [[CDKN2B-AS1]2235] | 25.50% | 
mA*mG*mU*mC*mU*C*C*A*T*G*T*C*C*C*A*mG*mG*mC*mC*mU (mA*mG*mU*mC*mU*dC*dC*dA*dT*dG*dT*dC*dC*dC*dA*mG*mG*mC*mC*mU; antisense) [[CDKN2B-AS1]2232] | 35.77% | 
mA*mG*mU*mG*mG*C*A*C*A*T*A*C*C*A*C*mA*mC*mC*mC*mU (AGUGGCACATACCACACCCU; antisense; sugars from the 5' end m5 d10 m5, all phosphorothioate, methylation of C not given here) [[CDKN2B-AS1]495] | 41.95% | 
mA*mU*mU*mU*mC*C*A*C*A*T*G*C*C*C*A*mG*mU*mG*mU*mU (AUUUCCACATGCCCAGUGUU; antisense; sugars from the 5' end m5 d10 m5, all phosphorothioate, methylation of C not given here) [[CDKN2B-AS1]626] | 32.05% | 
mC*mA*mG*mU*mC*T*C*C*A*T*G*T*C*C*C*mA*mG*mG*mC*mC (mC*mA*mG*mU*mC*dT*dC*dC*dA*dT*dG*dT*dC*dC*dC*mA*mG*mG*mC*mC; antisense) [[CDKN2B-AS1]2233] | 47.75% | 
mC*mA*mG*mU*mG*T*T*T*T*T*A*A*T*T*T*mU*mG*mU*mA*mG (mC*mA*mG*mU*mG*dT*dT*dT*dT*dT*dA*dA*dT*dT*dT*mU*mG*mU*mA*mG; antisense) [[CDKN2B-AS1]613] | 62.68% | 
mC*mU*mU*mG*mU*G*A*A*A*A*G*A*T*T*A*mU*mC*mU*mU*mC (mC*mU*mU*mG*mU*dG*dA*dA*dA*dA*dG*dA*dT*dT*dA*mU*mC*mU*mU*mC) [[CDKN2B-AS1]2139] | 85.33% | inhibition of R848 sensing by TLR7, short pre-treatment (in words) (HEK-TLR7, 100-500 nM oligo 20-50 min before R848 1 μg/ml): did not inhibit TLR7
mG*mC*mA*mG*mU*C*T*C*C*A*T*G*T*C*C*mC*mA*mG*mG*mC (GCAGUCTCCATGTCCCAGGC; antisense; sugars from the 5' end m5 d10 m5, all phosphorothioate, methylation of C not given here) [[CDKN2B-AS1]2234] | 20.30% | 
mG*mU*mC*mU*mC*C*A*T*G*T*C*C*C*A*G*mG*mC*mC*mU*mC (mG*mU*mC*mU*mC*dC*dA*dT*dG*dT*dC*dC*dC*dA*dG*mG*mC*mC*mU*mC) [[CDKN2B;AS1]2231] | 23.75% | 
mG*mU*mG*mU*mC*C*T*T*C*A*T*G*C*T*T*mU*mG*mG*mA*mU (GUGUCCTTCATGCTTUGGAU; antisense; sugars from the 5' end m5 d10 m5, all phosphorothioate, methylation of C not given here) [[CDKN2B-AS1]1415] | 18.05% | 
mG*mU*mG*mU*mU*T*T*T*A*A*T*T*T*T*G*mU*mA*mG*mA*mG (mG*mU*mG*mU*mU*dT*dT*dT*dA*dA*dT*dT*dT*dT*dG*mU*mA*mG*mA*mG) [[CDKN2B-AS1]611] | 23.63% | 
mU*mA*mU*mU*mU*C*C*A*C*A*T*G*C*C*C*mA*mG*mU*mG*mU (mU*mA*mU*mU*mU*dC*dC*dA*dC*dA*dT*dG*dC*dC*dC*mA*mG*mU*mG*mU; antisense) [[CDKN2B-AS1]627] | 30.54% | 
